Measurements reported in publication PMC10053369, “Recombinant Analogs of Sea Anemone Kunitz-Type Peptides Influence P2X7 Receptor Activity in Neuro-2a Cells” (Marine Drugs, 2023).
Positions of bridges follow the written chain, without caps; N, C: chain ends. No end group written: not given here.

How the values were obtained:
[1] = system: P2X7 in Neuro-2a cells; assay: ATP-induced Ca2+ influx (Fluo-8 AM); type: cell-based, mouse; settings: for reduction of calcium level: 30 min pre-incubation, 1 mM ATP
Protocol: Neuro-2a neuroblastoma cells (ATCC® CCL-131™) were obtained from American Type Culture Collection (Manassas, VA, USA). The cells were cultivated in DMEM medium (BioloT, St. Petersburg, Russia) supplemented with 10% of fetal bovine serum (BioloT, St. Petersburg, Russia) and 1% penicillin/streptomycin (BioloT, St. Petersburg, Russia) at 37 °C and 5% CO2. Initially, cells were incubated in cultural flasks until sub-confluent (~80%). For testing, Neuro-2a cells were seeded in 96-well plates and experiments were started after 24 h.
Neuro-2a cells were seeded in 96-well plates at a density of 4 × 10^4 cells/well and incubated in DMEM for 24 h at 37 °C, 5% CO2. Then the cells were washed twice with culture medium and loaded with 5 μM Fluo-8 AM (Abcam, Cambridge, UK) dye and 1 μM Pluronic® F-127 (Sigma-Aldrich, St. Louis, MO, USA), and incubated for 40 min at 37 °C in HBSS: 140 mM NaCl, 5 mM KCl, 0.8 mM MgCl2, 2 mM CaCl2, 10 mM glucose, 10 mM HEPES, pH 7.4. Then the cells were washed two times with the same solution but without the fluorescent dye and treated with the studied peptides for 30 min at RT in the dark. In some experiments Ca^2+-free medium was used: 140 mM NaCl, 5 mM KCl, 0.8 mM MgCl2, 10 mM glucose, 10 mM HEPES, 5 mM EGTA, pH 7.4. ATP (1 mM final concentration) was added using a microinjector (20 μL/well) 10 s later the baseline recording and the readings were taken up to 50 s in 1 s intervals. The standard P2X7 inhibitor, A438079 (Sigma-Aldrich, St. Louis, MO, USA), was used as inhibitory control. Ionomycin (Sigma-Aldrich, St. Louis, MO, USA) and BHQ were used to generate a generic calcium signal in cells. 2,5,-di(t-butyl) hydroquinone (BHQ) was synthesized and kindly provided by Dr. Polonik S.N. (PIBOC FEBRAS). Fluo-8 was excited at 485 nm, and the emission at 520 nm was measured with a PHERAstar®FS plate reader (BMG LABTECH, Ortenberg, Germany). The data were processed by MARS Data Analysis v. 3.01R2 (BMG Labtech, Ortenberg, Germany). Mean values and standard error of peak height calcium were calculated.
All data were obtained in three independent replicates and calculated values were expressed as mean ± standard error of the mean (SEM). The Student’s t-test was performed using SigmaPlot 14.0 (Systat Software Inc., San Jose, CA, USA) to determine statistical significance.

[2] = system: Kv1.1, Kv1.2, Kv1.3 and Kv1.6 isoforms as well as insect Shaker IR; settings: range over channels and both peptides, ref [16],[25]; cited from earlier work
Description: The studied peptides are analogs of sea anemone Kunitz-type peptides and attract our attention due to their wide spectrum of biological activity and ability to interact with important molecular targets.

## RGICSEPKVVGPCKAGLRRFYYDSETGECKPFIYGGCKGNKNNFETLHACRGICRA (disulfide 4-54, 13-37, 29-50 (inferred)) [HCRG1]
[1]; 0.1 μM peptide, mean ± SE, n = 3
  reduction of calcium level: 57.5 ± 11.6%
[1]; 0.1–10 μM peptide
  reduction of calcium level: significantly reduced the calcium level
[1]; short-term effect
  effect on Ca2+ influx (summary in discussion): a significant effect on Ca^2+ influx into cells
[2]
  IC50: 12 to 400 nM
